Reference: patent publication US20260266828A1, “BIOMARKERS FOR PREDICTING CANCER TREATMENT EFFICACY” (Arcus Biosciences, Inc., priority 2023, published 2026)

How the values were obtained:
[1] = test system: first line (1L) metastatic NSCLC; experiment: Real-world progression free survival analysis by CD155 gene expression, de-identified health records; assay type: in vivo, human
From the text: This example retrospectively evaluated the predictive value of CD155 expression for a clinical outcome using real-world data. […] Real-world progression free survival (rwPFS) is defined in this study as the time from treatment initiation until the first occurrence of progressive disease (PD) or death up to the end date of the same line of therapy. […] Otherwise, patients were censored at the last known follow up time. rwPFS is right censored at 36 months. The analysis was performed using de-identified health records of first line (1L) metastatic NSCLC patients treated with chemotherapy only, treated with pembrolizumab monotherapy, or treated with chemotherapy and pembrolizumab. A filter was applied to select for records where biopsies were obtained ≤12 months prior to the first dose of treatment. Records were excluded if the patient had EGF or ALK alterations.
The health records for each patient included information such as sex, race, smoking status, biopsy site, stage at time of diagnosis, subtype of lung cancer (adenocarcinoma or squamous cell carcinoma), tumor purity, PD-L1 expression, treatment (chemotherapy, pembrolizumab, or chemotherapy+pembrolizumab), clinical outcome, etc., as well as gene expression data for a number of targets (e.g., TIGIT, CD155, CD73). Chemotherapy for adenocarcinomas was cisplatin or carboplatin+pemetrexed. Chemotherapy for squamous cell carcinomas was either carboplatin and paclitaxel or nab-paclitaxel. Gene expression was quantified from RNA-seq data as transcript per million (tpm). Kaplan-Meier models were performed by gene and according to the following breakdowns: NSCLC subtype (all; adenocarcinoma only; squamous cell carcinoma only), PD-L1 expression (all; <1% TPS; 1-49% TPS; ≥50% TPS), and treatment (chemotherapy only, pembrolizumab only, chemotherapy and pembrolizumab). Results presented as Kaplan-Meier (KM) plots splitting high and low gene expressors into different groups, whereby high gene expression was defined as expression equal to or greater than a cut-off value determined by one of several threshold methodologies (e.g., median, 1st tertile (1st third vs last two thirds), 2nd tertile (two thirds vs. last third) and MaxStat (an outcome-oriented method providing a value of a cutpoint that corresponds to the most significant relation with outcome). Cox Proportional-Hazards tests were used to assess the effect of gene expression as a continuous variable, and hazard ratios were provided with each KM plot using the low gene expressor group as a reference.

[2] = test system: MC38 cells; experiment: In vitro oxaliplatin treatment of MC38 cells, flow cytometry of PD-L1 and CD155; assay type: cell-based, mouse; conditions: dying cells, ≥1 μM, 22 h
Protocol: (§1) Lines and error represent the mean±standard deviation (SD) of biological triplicates. […] In FIG. 5B and FIG. 5C, lines and error represent the mean±SD of biological duplicates.
(§2) For flow cytometry, MC38 cells were plated in supplemented RPMI medium at 1×10^5 cells/well in a 12-well tissue culture plate. For CellTiter-Glo (Promega) analysis, cells were plated in supplemented RPMI medium at 5×10^3 cells/well in a 96-well white flat-bottom tissue culture plate. […] Data were normalized to PBS treated cells. For flow cytometry, cells were harvested using a cell scraper, and transferred into a 96-well round-bottom plate for staining. Cells were washed, incubated with live-dead aqua and anti-mouse CD16/CD32 Fc block at RT followed by cell surface staining with anti-mouse PD-L1 BV711 (clone MIH4, BD Biosciences) and anti-mouse CD155 BUV395 (clone 3F1, BD Biosciences) at 4° C. Cells were washed, fixed with IC fixation buffer (Invitrogen) at RT, washed again, and resuspended in PBS for flow cytometry.

[3] = test system: MC38 tumors; experiment: Flow cytometry phenotyping of MC38 tumors and tdLN after treatment; assay type: in vivo, mouse; conditions: three days after the first OXA exposure
Protocol: Methods—Mouse tumor-infiltrating lymphocyte and lymph node phenotyping. MC38 tumors were minced with scissors and dissociated with tumor digestion buffer [RPMI 1640 supplemented with 20% FBS, 0.25 mg/mL Collagenase D (Roche), and 100 KUnits/mL Type IV DNase I (Sigma-Aldrich)]. Single-cell tumor suspensions were passed through a 70 μm cell strainer and washed. Inguinal lymph nodes were collected from the same side as the tumor (tumor-draining lymph node, tdLN), minced, passed through a 70 μm cell strainer and washed. A total of 1×10^6 tumor or lymph node cells per well were incubated at room temperature (RT) with live-dead NIR (Invitrogen) and anti-mouse CD16/CD32 Fc block (BD Biosciences). For p15E tetramer staining, cells were washed and incubated with tetramer at RT. Cells were stained for surface and intracellular markers and analyzed by flow cytometry as indicated above.
In vivo experiments were performed at Arcus Biosciences in accordance with federal, state, and institutional guidelines and were approved by Arcus Biosciences' Institutional Animal Care and Use Committee. Female 6-8 week old C57BL/6J mice were purchased from Charles River Laboratories. Mice were injected subcutaneously on the right flank with 1×10^6 MC38 cells in 100 μL PBS. Once tumors were established (sized indicated in figure legends), mice were randomized into groups based on tumor size distribution. […] The dosing regimens for anti-PD-1 and anti-TIGIT were determined via receptor occupancy (RO) assays using commercially available a competitive anti-TIGIT antibody (clone GIGD7), a non-competitive PD-1 antibody (clone J43) as well as direct detection of both anti-TIGIT and anti-PD-1 via secondary antibody (Jackson Immunoresearch anti-mouse IgG, Fcγ subclass 2a specific). The dosing regimen for FTY720 was determined in naïve C57BL/6 females by examining lymphocyte frequencies and numbers in the blood 24 h after dosing. Tumor volume was monitored with digital calipers and volume was calculated using the formula: (Length×Width^2)/2. […]

[4] = test system: MC38 cells; conditions: 1 μM, 72 hours
Protocol: as §1, §2

[5] = test system: Jurkat cell line stably overexpressing human TIGIT; conditions: increasing concentrations up to 33 nM; cited from earlier work
[6] = target: T1, FcγR-IIIA (V158 high-affinity variant) (Homo sapiens, UniProt P08637, F176V); parameters: dose or concentration left out as unconfirmed; conditions: cited from earlier work
T1 construct: expressed in transfected cells
T1 sequence (P08637 17-254 F176V): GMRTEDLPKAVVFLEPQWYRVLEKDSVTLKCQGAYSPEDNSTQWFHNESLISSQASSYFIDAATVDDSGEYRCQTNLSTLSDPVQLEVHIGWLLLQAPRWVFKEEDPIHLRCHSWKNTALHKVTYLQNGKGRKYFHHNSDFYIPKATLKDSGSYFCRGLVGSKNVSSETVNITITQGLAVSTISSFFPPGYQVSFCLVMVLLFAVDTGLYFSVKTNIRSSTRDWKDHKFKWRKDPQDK

[7] = test system: FcγR isotypes I, IIA, JIB, IIIA, and IIIB; parameters: dose or concentration left out as unconfirmed; conditions: compared with wild-type IgG1 control antibody; cited from earlier work

pembrolizumab
Median real-world progression-free survival (rwPFS) ([1]; CD155 High, threshold method Median, PD-L1 TPS 1-49%): 5.4 mo | Median real-world progression-free survival (rwPFS) ([1]; CD155 High, threshold method Median, PD-L1 TPS <1%): 13.8 mo | Median real-world progression-free survival (rwPFS) ([1]; CD155 High, threshold method Median, PD-L1 TPS All): 7.67 mo | Median real-world progression-free survival (rwPFS) ([1]; CD155 High, threshold method Median, PD-L1 TPS ≥50%): 8.53 mo | Median real-world progression-free survival (rwPFS) ([1]; CD155 High, threshold method q33, PD-L1 TPS 1-49%): 4.63 mo | Median real-world progression-free survival (rwPFS) ([1]; CD155 High, threshold method q33, PD-L1 TPS <1%): 8.1 mo | Median real-world progression-free survival (rwPFS) ([1]; CD155 High, threshold method q33, PD-L1 TPS All): 8.07 mo | Median real-world progression-free survival (rwPFS) ([1]; CD155 High, threshold method q33, PD-L1 TPS ≥50%): 8.63 mo | Median real-world progression-free survival (rwPFS) ([1]; CD155 High, threshold method q67, PD-L1 TPS 1-49%): 3.93 mo | Median real-world progression-free survival (rwPFS) ([1]; CD155 High, threshold method q67, PD-L1 TPS <1%): 13.8 mo | Median real-world progression-free survival (rwPFS) ([1]; CD155 High, threshold method q67, PD-L1 TPS All): 7.03 mo | Median real-world progression-free survival (rwPFS) ([1]; CD155 High, threshold method q67, PD-L1 TPS ≥50%): 7.23 mo | Median real-world progression-free survival (rwPFS) ([1]; CD155 Low, threshold method Median, PD-L1 TPS 1-49%): 6.2 mo | Median real-world progression-free survival (rwPFS) ([1]; CD155 Low, threshold method Median, PD-L1 TPS <1%): 8.1 mo | Median real-world progression-free survival (rwPFS) ([1]; CD155 Low, threshold method Median, PD-L1 TPS All): 10.3 mo | Median real-world progression-free survival (rwPFS) ([1]; CD155 Low, threshold method Median, PD-L1 TPS ≥50%): 14.1 mo | Median real-world progression-free survival (rwPFS) ([1]; CD155 Low, threshold method q33, PD-L1 TPS 1-49%): 9.67 mo | Median real-world progression-free survival (rwPFS) ([1]; CD155 Low, threshold method q33, PD-L1 TPS <1%): 8.1 mo | Median real-world progression-free survival (rwPFS) ([1]; CD155 Low, threshold method q33, PD-L1 TPS All): 13.3 mo | Median real-world progression-free survival (rwPFS) ([1]; CD155 Low, threshold method q33, PD-L1 TPS ≥50%): 17.1 mo | Median real-world progression-free survival (rwPFS) ([1]; CD155 Low, threshold method q67, PD-L1 TPS 1-49%): 7.1 mo | Median real-world progression-free survival (rwPFS) ([1]; CD155 Low, threshold method q67, PD-L1 TPS <1%): 8.1 mo | Median real-world progression-free survival (rwPFS) ([1]; CD155 Low, threshold method q67, PD-L1 TPS All): 9.67 mo | Median real-world progression-free survival (rwPFS) ([1]; CD155 Low, threshold method q67, PD-L1 TPS ≥50%): 11.7 mo

O=C1[O][Pt]2([NH][C@@H]3CCCC[C@H]3[NH]2)[O]C1=O [OXA, oxaliplatin]
expression of PD-L1 and CD155 ligands [2]: increased expression | TCF-1 positivity in tumoral CD8+ T cells [3]: increase | intratumoral monocytes [3]: decreases | tumor neutrophils [3]: increase | cancer cell death [4]: ~100%

B1: domvanalimab (antibody, chains of the INN, looked up, V domains shown)
VH: EVQLVESGGGLVQPGGSLRLSCAASGFTFSNFGMHWVRQAPGKGLEWVAFISSGSSSIYYADTVKGRFTISRDNAKNSLYLQMNSLRAEDTAVYYCARMRLDYYAMDYWGQGTMVTVSS
VL: DIQMTQSPSSLSASVGDRVTITCRASKSISKYLAWYQQKPGKAPKLLIYSGSTLQSGVPSRFSGSGSGTDFTLTISSLQPEDFATYYCQQHNEYPWTFGGGTKVEIK
notes: Fc-silent anti-TIGIT antibody with engineered IgG1 Fc
complement dependent cytotoxicity [5]: No cytotoxicity | activity in FcγR-IIIA effector reporter bioassay [6]: inactive | binding to FcγR isotypes [7]: no significant binding
